We go through 21 compounds from PubChem BioAssay AID200 (DTP/NCI, 2004).

The test system of this experiment is B6C3F1 mice, B16 melanoma ip, median survival T/C. Kind of experiment: NCI In Vivo Anticancer Drug Screen. Data for tumor model B16 Melanoma (intraperitoneal) in B6C3F1 mice. To be noted: endpoint: median survival time, higher = longer survival. In outline: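 Mice bearing transplanted tumor were dosed with compound or vehicle, and survival was recorded. Activity is expressed as the treated-group measurement (T) divided by the vehicle control measurement (C).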

Where [1] appears, read: dose: 100.0 mg/kg/injection, schedule: Q01DX009 (ip), vehicle: saline.
[2] abbreviates: dose: 12.5 mg/kg/injection, schedule: Q01DX009 (ip), vehicle: saline with Tween-80.
Where [3] appears, read: dose: 25.0 mg/kg/injection, schedule: Q01DX009 (ip), vehicle: saline with Tween-80.
Where [4] appears, read: dose: 50.0 mg/kg/injection, schedule: Q01DX009 (ip), vehicle: saline with Tween-80.
Setting [5] is: dose: 100.0 mg/kg/injection, schedule: Q01DX009 (ip), vehicle: saline with Tween-80.
Where [6] appears, read: dose: 200.0 mg/kg/injection, schedule: Q01DX009 (ip), vehicle: saline with Tween-80.
Setting [7] is: dose: 400.0 mg/kg/injection, schedule: Q01DX009 (ip), vehicle: saline with Tween-80.
Where [8] appears, read: dose: 1.56 mg/kg/injection, schedule: Q01DX009 (ip), vehicle: Klucel (hydroxypropylcellulose) (HPC).
The mark [9] stands for this setting: dose: 3.12 mg/kg/injection, schedule: Q01DX009 (ip), vehicle: Klucel (hydroxypropylcellulose) (HPC).
Where [10] appears, read: dose: 3.12 mg/kg/injection, schedule: Q01DX009 (ip), vehicle: saline with Tween-80.
The mark [11] stands for this setting: dose: 6.25 mg/kg/injection, schedule: Q01DX009 (ip), vehicle: Klucel (hydroxypropylcellulose) (HPC).
Where [12] appears, read: dose: 6.25 mg/kg/injection, schedule: Q01DX009 (ip), vehicle: saline with Tween-80.
Setting [13] is: dose: 12.5 mg/kg/injection, schedule: Q01DX009 (ip), vehicle: Klucel (hydroxypropylcellulose) (HPC).
Where [14] appears, read: dose: 25.0 mg/kg/injection, schedule: Q01DX009 (ip), vehicle: Klucel (hydroxypropylcellulose) (HPC).
The mark [15] stands for this setting: dose: 50.0 mg/kg/injection, schedule: Q01DX009 (ip), vehicle: Klucel (hydroxypropylcellulose) (HPC).
The mark [16] stands for this setting: dose: 100.0 mg/kg/injection, schedule: Q01DX009 (ip), vehicle: Klucel (hydroxypropylcellulose) (HPC).

Where “and” joins values, the source holds several entries; their conditions need not be identical. Identical values can stand only once. Toxic doses and inconclusive results are not listed. Where a SMILES comes first, the peptide text is derived from it.

For the compound `CCCCCCCCCCCCCCC/C([O-])=N/[N+](C)(C)CC(C)O` (configuration not stated), the T/C runs as follows: (dose: 25.0 mg/kg/injection, schedule: Q01DX001 (ip), vehicle: saline with Tween-80) 105 % of control; (dose: 50.0 mg/kg/injection, schedule: Q01DX001 (ip), vehicle: saline with Tween-80) 96 % of control; (dose: 50.0 mg/kg/injection, schedule: Q01DX001 (ip), vehicle: saline) 105 % of control; (dose: 100.0 mg/kg/injection, schedule: Q01DX001 (ip), vehicle: saline with Tween-80) 97 % of control; (dose: 200.0 mg/kg/injection, schedule: Q01DX001 (ip), vehicle: saline with Tween-80) 104 % of control; (dose: 200.0 mg/kg/injection, schedule: Q01DX001 (ip), vehicle: saline) 86 % of control. The T/C (dose: 400.0 mg/kg/injection, schedule: Q01DX001 (ip), vehicle: saline with Tween-80) is 100 % of control.

Regarding `CC(/C=N/N=C(N)N)=N\N=C(N)N`, the T/C by setting is: (dose: 25.0 mg/kg/injection, schedule: Q01DX009 (ip), vehicle: saline) 110 % of control; (dose: 50.0 mg/kg/injection, schedule: Q01DX009 (ip), vehicle: saline) 111 % of control; under setting [1], 95 % of control.

Consider `ClCC[N+]12CC[N+](CCCl)(CC1)C2`, for which the T/C is, setting by setting: (dose: 12.5 mg/kg/injection, schedule: Q01DX009 (ip), vehicle: water) 98 % of control; (dose: 25.0 mg/kg/injection, schedule: Q01DX009 (ip), vehicle: water) 114 % of control; (dose: 50.0 mg/kg/injection, schedule: Q01DX009 (ip), vehicle: water) 104 % of control; (dose: 100.0 mg/kg/injection, schedule: Q01DX009 (ip), vehicle: water) 108 % of control.

In the case of `CN1C(=O)NC(c2ccc(Cl)cc2)(c2ccc(Cl)cc2)C1=O`, the T/C is, setting by setting: under setting [2], 105 % of control; under setting [3], 100 % of control; under setting [4], 99 % of control; under setting [5], 99 % of control; under setting [6], 103 % of control; under setting [7], 99 % of control.

For `CC(C)c1cc(C(=O)O)c(O)c(C(C)C)c1.CC(C)c1cc(C(=O)O)c(O)c(C(C)C)c1.[Cu]`, the T/C is, setting by setting: (dose: 1.5 mg/kg/injection, schedule: Q01DX009 (ip), vehicle: saline with Tween-80) 92 % of control; (dose: 3.0 mg/kg/injection, schedule: Q01DX009 (ip), vehicle: saline with Tween-80) 96 % of control; (dose: 6.0 mg/kg/injection, schedule: Q01DX009 (ip), vehicle: saline with Tween-80) 97 % of control; (dose: 12.0 mg/kg/injection, schedule: Q01DX009 (ip), vehicle: saline with Tween-80) 106 % of control; under setting [2], 102 % of control; (dose: 24.0 mg/kg/injection, schedule: Q01DX009 (ip), vehicle: saline with Tween-80) 89 % of control.

Consider `O=c1s[se]c2ccccc12`, for which the T/C runs as follows: under setting [8], 94 % of control; (dose: 1.56 mg/kg/injection, schedule: Q01DX009 (ip), vehicle: saline with Tween-80) 104 % of control; under setting [9], 108 % of control; under setting [10], 114 % of control; under setting [11], 97 % of control; under setting [12], 87 % of control. In addition, the T/C was 98 % of control under setting [13]; 103 % of control under setting [2]; 94 % of control under setting [14]; 105 % of control under setting [3]; 92 % of control under setting [4].

In the case of `C=C1C(=O)OC2/C=C(\CO)CC/C=C(\CO)CC(OC(=O)C(C)C)C12` (configuration not stated), the T/C (dose: 3.75 mg/kg/injection, schedule: Q01DX009 (ip), vehicle: Klucel (hydroxypropylcellulose) (HPC)) is 103 % of control.

Take `CN=C(NC)c1ccc(NC(=O)/C=C\c2ccc(/C=C/C(=O)Nc3ccc(C(=NC)NC)cc3)cc2)cc1`: the T/C under setting [8] is 110 % of control, the T/C under setting [9] is 107 % of control and the T/C under setting [11] is 90 % of control.

Turning to `CCN(CC)CC(=O)O[C@]1(CC)C(=O)OCc2c1cc1n(c2=O)Cc2cc3ccccc3nc2-1`, the T/C is 108 % of control (dose: 1.0 mg/kg/injection, schedule: Q01DX009 (ip), vehicle: water); 121 % of control (dose: 2.0 mg/kg/injection, schedule: Q01DX009 (ip), vehicle: water); 152 % of control (dose: 4.8 mg/kg/injection, schedule: Q01DX009 (ip), vehicle: water); 166 % of control (dose: 8.0 mg/kg/injection, schedule: Q01DX009 (ip), vehicle: water).

With `CCC(C)c1cnc(CC(C)C)c(=O)n1O` (configuration not stated), the T/C runs as follows: under setting [4], 98 % of control; under setting [5], 87 % of control.

Consider `COc1cc2c(c(OC)c1OC)-c1ccc(OC)c(=O)cc1[C@@H](NC(=O)CCl)CC2`, for which the T/C (dose: 0.12 mg/kg/injection, schedule: Q01DX009 (ip), vehicle: saline with Tween-80) was 154 % of control and the T/C (dose: 0.25 mg/kg/injection, schedule: Q01DX009 (ip), vehicle: saline with Tween-80) was 154 % of control.

Take `CN(C)CC(=O)c1ccc(O)c(O)c1`: the T/C runs as follows: under setting [1], 104 % of control; (dose: 200.0 mg/kg/injection, schedule: Q01DX009 (ip), vehicle: saline) 114 % of control and 102 % of control; (dose: 400.0 mg/kg/injection, schedule: Q01DX009 (ip), vehicle: saline) 122 % of control and 108 % of control.

Take `O=C(CC(=O)C(F)(F)F)c1csc2ccccc12`: the T/C by setting is: under setting [9], 112 % of control; under setting [11], 89 % of control; under setting [13], 103 % of control; under setting [14], 113 % of control; under setting [15], 100 % of control; under setting [16], 87 % of control.

Take `O=CC(NC(=O)N(CCF)N=O)C(O)C(O)C(O)CO` (configuration not stated): the T/C was 169 % of control (dose: 30.0 mg/kg/injection, schedule: Q01DX001 (ip), vehicle: saline); 210 % of control (dose: 60.0 mg/kg/injection, schedule: Q01DX001 (ip), vehicle: saline); 204 % of control (dose: 120.0 mg/kg/injection, schedule: Q01DX001 (ip), vehicle: saline).

Turning to `O=C1c2cccc(NCCCNCCO)c2C(=O)c2cccc(NCCCNCCO)c21`, the T/C is 102 % of control (dose: 6.25 mg/kg/injection, schedule: Q01DX009 (ip), vehicle: acid diluted with saline); 108 % of control (dose: 12.5 mg/kg/injection, schedule: Q01DX009 (ip), vehicle: acid diluted with saline); 154 % of control (dose: 25.0 mg/kg/injection, schedule: Q01DX009 (ip), vehicle: acid diluted with saline).

For the compound `CC(C)N1C(=O)C=C(c2ccc([N+](=O)[O-])cc2)C1=O`, the T/C was 104 % of control under setting [10], 111 % of control under setting [12], 105 % of control under setting [2] and 105 % of control under setting [3].

As to `CC(C)CC(NC(=O)CNC(=O)C(CC(C)C)NC(=O)CN)C(=O)O` (configuration not stated) (H-GLGL-OH; configuration not given here), the T/C under setting [16] is 120 % of control; the T/C (dose: 200.0 mg/kg/injection, schedule: Q01DX009 (ip), vehicle: Klucel (hydroxypropylcellulose) (HPC)) was 118 % of control; the T/C (dose: 400.0 mg/kg/injection, schedule: Q01DX009 (ip), vehicle: Klucel (hydroxypropylcellulose) (HPC)) was 122 % of control.

Regarding `CCOC(=O)c1c(C)c(C(=O)OCC)n(C)c1C=O`, the T/C runs as follows: under setting [5], 95 % of control; under setting [6], 94 % of control; under setting [7], 92 % of control.

For `CC(=O)OCC1OC(OC2=C(CC=C(C)C)C(=O)c3ccccc3C2=O)C(OC(C)=O)C(OC(C)=O)C1OC(C)=O` (configuration not stated), the T/C is 104 % of control under setting [9]; 95 % of control under setting [11]; 98 % of control under setting [13]; 106 % of control under setting [14]; 94 % of control under setting [15].

Regarding `CC(=O)Nc1ccc(O)c(O)c1`, the T/C runs as follows: under setting [2], 109 % of control and 112 % of control; under setting [3], 114 % of control and 117 % of control; under setting [4], 104 % of control and 105 % of control; under setting [5], 113 % of control and 101 % of control; under setting [6], 113 % of control and 106 % of control; under setting [7], 122 % of control and 106 % of control.

As to `COC(=O)Nc1cn2ccc(Sc3ccccc3)cc2n1`, the T/C under setting [15] was 122 % of control and the T/C under setting [16] is 101 % of control.
